Laboratory results taken from PubChem BioAssay AID434930 (Broad Institute, 2010).
Results filed as inconclusive are left out. Active and inactive are the calls of the source.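 How the source made its calls: active means fitted EC50 no higher than ten times the highest tested concentration; inconclusive means flat fit with 30 to 70% inhibition, or poor fit; inactive means EC50 beyond ten times the top tested dose.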

The compounds below were run on C. albicans CaCi-2 + fluconazole, Alamar Blue growth, 48 h (assay: C. albicans growth inhibition with fluconazole, dose response, C. albicans CaCi-2 (fluconazole-resistant clinical isolate), fluorescence, retest (AID 434930)).

First: Cc1ccc(C(=O)c2coc3c2C(=O)C(=O)c2ccccc2-3)cc1
Second: Cc1ccc(C(=O)Nc2cccc(-c3cn4ccccc4n3)c2)cc1
The EC50 of the first is 2.3-fold lower: 2.89 µM for the first, 6.79 µM for the second.

Going from `O=c1c2cc(Br)ccc2nc(-c2cccc(C(F)(F)F)c2)n1O` to `Cc1oc2c(F)c(F)c(F)c(F)c2c1S(=O)(=O)Nc1cccc(C(F)(F)F)c1`, the EC50 rises from 4.16 µM to 10.8 µM (2.6-fold). The first is the more potent here.

Compared with `O=C(Nc1nnc(-c2ccc3c(c2)CCCC3)o1)c1ccc(Cl)cc1Cl`, `O=C(Nc1nnc(-c2ccco2)o1)c1ccc(Cl)cc1` is 4-fold higher in EC50: 0.321 µM for the first, 1.28 µM for the second. The first is the more potent here.

Going from `CC(C)COCc1ccc(O)c2ncccc12` to `CCCC(=O)NC(c1ccccc1)c1ccc2cccnc2c1O` (stereo not drawn), the EC50 falls from 16.5 µM to 0.577 µM (29-fold). The second is the more potent here.

Compared with `Clc1ccc2c(c1)C(c1cccs1)=NNC(c1cccnc1)=N2`, `O=C(Oc1c(Cl)cc(Cl)c2cccnc12)c1cccs1` is 3.6-fold higher in EC50: 0.0778 µM for the first, 0.28 µM for the second. The first is the more potent here.

First: COc1ccc(-n2nc(C(=O)NCC(=O)N3CCN(c4ccccc4)CC3)c3ccccc3c2=O)c(OC)c1
Second: CC(C)N1CCc2c(sc(NC(=O)c3nc4ccccc4s3)c2C(N)=O)C1
The EC50 of the first is 6-fold higher: 7.17 µM for the first, 1.19 µM for the second. The second is the more potent here.

Going from `O=C(NNC1=C(C(=O)C(F)(F)F)CCC1)c1ccc(Cl)cc1` to `O=C(Nc1sc2c(c1C(=O)c1ccc(Cl)cc1)CCCC2)c1cccnc1`, the EC50 falls from 18.8 µM to 1.83 µM (10-fold). The second is the more potent here.

First: COc1ccc(-c2nnc(NC(=O)c3ccc(F)cc3)o2)cc1
Second: Cc1nc2ccccc2cc1OCc1ccc(F)cc1
The EC50 of the first is 17-fold lower: 0.489 µM for the first, 8.45 µM for the second. The first is the more potent here.

Compared with `CCOC(=O)N1C(=O)C2(CCCCC2)N(c2ccc(C)cc2)C1=S`, `COc1cc2c(cc1NC(=O)c1ccco1)CCCC2` is higher in EC50: < 0.1 µM for the first, 0.103 µM for the second.

Compared with `CCCC(=O)NC(c1ccc(Cl)cc1)c1ccc2cccnc2c1O` (stereo not drawn), `Nc1nccnc1C(=O)Nc1nnc(SCc2ccc(Cl)cc2)s1` is 4.4-fold higher in EC50: 0.485 µM for the first, 2.11 µM for the second.

First: O=C(Nc1nnc(CCc2ccccc2)s1)c1ccco1
Second: O=C(Nc1nc(-c2ccccn2)cs1)c1ccc(Br)s1
The EC50 of the first is 3.6-fold lower: 3.08 µM for the first, 11.1 µM for the second. The first is the more potent here.

In the case of `Cc1ccc(/C=C/C(=O)c2ccccc(=O)c2O)cc1C`, the EC50 is reported as > 26 µM (inactive).
